Values quoted from earlier work in article PMC4052326, “Alterporriol-Type Dimers from the Mangrove Endophytic Fungus, Alternaria sp. (SK11), and Their MptpB Inhibitions” (Marine Drugs, 2014).

System: clinical multidrug-resistant M. tuberculosis strains
Conditions: result in words; cited from earlier work

Substance: 4-deoxybostrycin
- inhibition against some clinical multidrug-resistant M. tuberculosis strains: good inhibition
